Measured values taken from patent publication US8772305B2, “Substituted pyridinyl-pyrimidines and their use as medicaments” (Boehringer Ingelheim International GmbH, priority 2011, dated 2014).

Molecular target: Recombinant human Syk (amino acids 342-635), GST-Syk kinase fusion protein (Homo sapiens (Human), UniProt P43405)
Experiment: In vitro Syk kinase test (Kinase Glo luminescence)
Settings: read-out: SYK Enzyme IC50, GST-Syk 4 nM, ATP remaining after 60 min at room temperature
Protocol: The catalytic activity of the GST-Syk kinase fusion protein was determined using the Kinase Glo® Luminescence Kinase test (Promega; V6712). In this homogeneous test the amount of ATP remaining after the kinase reaction is quantified by a luciferin-luciferase reaction using luminescence. The luminescence signal obtained correlates with the amount of ATP still present and thus correlates inversely with the activity of the protein kinase.
GST-Syk was diluted to 6.0 nM in the test buffer and 10 μl of this dilution were used in the kinase test (final concentration of Syk=4 nM in a total volume of 15 μl). […]
After 60 minutes, 10 μl Kinase-Glo® solution (Promega, Cat. #V6712) (heated to room temperature) were added to each well and incubation was continued for a further 15 minutes. The plates were read in a Microplate Scintillation and Luminescence Counter (Canberra Packard GmbH). […]
The output file of the “Counter” is a text file that contains the well number and measured counts in two columns. […] Based on this values the % inherent value for the measurement of each substance concentration was calculated using an “MS-Excel—VB macro”. […] The IC50 values were calculated from the % inhibition values using “GraphPadPrism” software (Version 5) (GraphPad Software Inc.).

Molecule `CNC(=O)c1c[nH]c2ccc(Nc3nccc(-c4ccccn4)n3)cc12` [Example 284] has an IC50 of 17.7 nM.
